Data on three compounds can be found in patent publication US20240239772A1, “PROTEASE INHIBITORS AND METHODS OF USE” (The Cleveland Clinic Foundation, priority 2021, published 2024).

Where two headings read alike, the source gives them in different places.

One assay deals with SARS-CoV-1 3CLpro (Severe acute respiratory syndrome coronavirus (SARS-CoV), UniProt P0C6X7). It is filed as biochemical.
Another assay deals with SARS-CoV-2 3CLpro (Severe acute respiratory syndrome coronavirus 2 (2019-nCoV) (SARS-CoV-2), UniProt P0DTD1). As to the kind of experiment: biochemical. It is filed as biochemical. The conditions noted are these: read-out: SARS-CoV-2 IC50.
In assay [1] the test system is SARS-CoV-2. In words: microbe, parasite or virus in culture. The conditions noted are these: Severe acute respiratory syndrome coronavirus 2, Vero C1008, read-out: Plaque Reduction Assay EC50. The format is cell-based.
The test system of assay [2] is SARS-CoV-2. In words: microbe, parasite or virus in culture. Conditions: Severe acute respiratory syndrome coronavirus 2, Vero C1008, 68 h, read-out: CPE Inhibition Assay EC50. The format is cell-based.

`O=C(Cn1nnc2ccccc21)N(Cc1cc(F)cc(Cl)c1)c1ccc(-c2cccnc2)cc1` [Compound 31, 2-(Benzotriazol-1-yl)-N-[(3-chloro-5-fluoro-phenyl)methyl]-N-[4-(3-pyridyl)phenyl]acetamide]: the IC50 – broadly, the concentration that inhibits the measured activity by half – on SARS-CoV-1 3CLpro was found to be 74 ± 10 nM; at SARS-CoV-2 3CLpro it was 119 ± 5 nM.
Consider `O=C(Cn1nnc2ccccc21)N(Cc1cccc(Cl)c1)c1ccc(-c2cn[nH]c2)nc1` [Compound 39, 2-(Benzotriazol-1-yl)-N-[(3-chlorophenyl)methyl]-N-[6-(1H-pyrazol-4-yl)-3-pyridyl]acetamide], for which the EC50 (usually the concentration needed to bring the measured effect to its halfway point) was 4650 ± 110 nM with SARS-CoV-2 [1] and 3810 ± 180 nM in the assay with SARS-CoV-2 [2]. Also, the IC50 against SARS-CoV-1 3CLpro came to 336 ± 65 nM; on SARS-CoV-2 3CLpro it was 333 ± 93 nM.
The matching figures for `O=C(Cn1nnc2ccccc21)N(Cc1cccc(Cl)c1)c1ccc(-c2cn[nH]c2)cn1` [Compound 40, 2-(Benzotriazol-1-yl)-N-[(3-chlorophenyl)methyl]-N-[5-(1H-pyrazol-4-yl)-2-pyridyl]acetamide]: 3390 ± 210 nM, 1910 ± 300 nM, 214 ± 63 nM and 171 ± 29 nM.
